From patent US20120115724A1, “METHOD OF CONTROLLING UNDESIRED VEGETATION” (SYNGENTA CROP PROTECTION LLC, priority 2009, published 2012)

Columns and labels:
Type in all cases: in vivo
[1] = system: AMARE Amaranthus retroflexus; assay: Post-emergence crop and weed test (Example 15); details: 360 h, after 15 days, read-out: Percentage damage AMARE
Procedure, shortened: (§1)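 Plants grown 14 days in glasshouse pots (22/16 °C day/night, 16 h light, 65% humidity) were sprayed post-emergence with compound formulated as a 5% stock in acetone/Emulsogen EL/NMP/DPG-monoethyl ether, diluted in water with 0.2% X-77. Damage was scored after 15 days (0 = none, 100 = total).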

GALAP Galium aparine = assay: Post-emergence crop and weed test (Example 15); details: 360 h, after 15 days, read-out: Percentage damage GALAP
Procedure, shortened: as §1

IPOHE Ipomoea hederacea = assay: Post-emergence crop and weed test (Example 15); details: 360 h, after 15 days, read-out: Percentage damage IPOHE
Procedure, shortened: as §1

[2] = system: POLCO Polygonum convolvulus; assay: Post-emergence crop and weed test (Example 15); details: Fallopia convolvulus, 360 h, after 15 days, read-out: Percentage damage POLCO
Procedure, shortened: as §1

[3] = system: ABUTH Abutilon theophrasti; assay: Post-emergence crop and weed test (Example 15); details: 360 h, after 15 days, read-out: Percentage damage ABUTH
Procedure, shortened: as §1

GLXMA Soybean = assay: Post-emergence crop and weed test (Example 15); details: Glycine max, 360 h, after 15 days, read-out: Percentage damage GLXMA
Procedure, shortened: as §1

SINAR Sinapis arvensis = assay: Post-emergence crop and weed test (Example 15); details: Mutarda arvensis, 360 h, after 15 days, read-out: Percentage damage SINAR
Procedure, shortened: as §1

[4] = system: EPHHL Euphorbia heterophylla; assay: Post-emergence crop and weed test (Example 15); details: 360 h, after 15 days, read-out: Percentage damage EPHHL
Procedure, shortened: as §1

SIDSP Sida spinosa = assay: Post-emergence crop and weed test (Example 15); details: 360 h, after 15 days, read-out: Percentage damage SIDSP
Procedure, shortened: as §1

VERPE Veronica persica = assay: Post-emergence crop and weed test (Example 15); details: 360 h, after 15 days, read-out: Percentage damage VERPE
Procedure, shortened: as §1

KCHSC Kochia scoparia [5] = assay: Post-emergence crop and weed test (Example 15); details: Bassia scoparia, 360 h, after 15 days, read-out: Percentage damage KCHSC
Procedure, shortened: as §1

CHEAL Chenopodium album = assay: Post-emergence crop and weed test (Example 15); details: 360 h, after 15 days, read-out: Percentage damage CHEAL
Procedure, shortened: as §1

[6] = system: XANST Xanthium strumarium; assay: Post-emergence crop and weed test (Example 15); details: 360 h, after 15 days, read-out: Percentage damage XANST
Procedure, shortened: as §1

[7] = system: Ipomea hederaceae (IPOHE); assay: Post-emergence biological efficacy (Example 14); details: Ipomoea hederacea, 312 h; post-emergence, 1,000 g/ha, after 13 days; read-out: Percentage damage IPOHE
Procedure, shortened: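 Herbicidal effect was assessed as percent plant damage 13 days after a foliar application of 250 or 1000 g/ha to 8-day-old glasshouse-grown plants, with the compound formulated in 50:50 acetone/water containing 0.5% Tween 20.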

KCHSC Kochia scoparia [8] = assay: Pre-emergence crop and weed test (Example 16); details: after 20 days
Description: Seeds of crop and representative weed species were sown in standard soil in pots. After cultivation for 1 day under controlled conditions in a glasshouse (at 22/16° C., day/night; 16 hours light; 65% humidity), the plants were sprayed. The spray solution was prepared by dissolving the technical active ingredient in acetone containing 10.56 wt % Emulsogen EL, 42.22 wt % N-methylpyrrolidone and 2.22 wt % DPG-monoethyl ether to give a 5% stock solution. This was then diluted with water containing 0.2% (v/v) of the adjuvant X-77 to give the desired treatment concentration.
The test plants were then grown on under controlled conditions in a glasshouse (at 22/16° C., day/night; 16 hours light; 65% humidity) and watered twice daily. After 20 days the test was evaluated (100=total damage to plant; 0=no damage to plant).
Species as for Post-Emergence Test.

## C/C=C/c1c(N)nc(-c2ccc(Cl)c(OC)c2F)nc1C(=O)OC [Compound 3, (E)-4-Amino-2-(4-chloro-2-fluoro-3-methoxy-phenyl)-6-methoxy-carbonyl-5-(prop-1-enyl)-pyrimidine]
[1]; 125 g/ha
  pest or weed control at 125 g/ha: 100%
GALAP Galium aparine; 125 g/ha
  pest or weed control at 125 g/ha: 70%
IPOHE Ipomoea hederacea; 125 g/ha
  pest or weed control at 125 g/ha: 80%
[2]; 125 g/ha
  pest or weed control at 125 g/ha: 90%
[3]; 125 g/ha
  pest or weed control at 125 g/ha: 80%
GLXMA Soybean; 125 g/ha
  plant injury at 125 g/ha: 0%
SINAR Sinapis arvensis; 125 g/ha
  pest or weed control at 125 g/ha: 70%
[4]; 125 g/ha
  pest or weed control at 125 g/ha: 90%
SIDSP Sida spinosa; 125 g/ha
  pest or weed control at 125 g/ha: 80%
VERPE Veronica persica; 125 g/ha
  pest or weed control at 125 g/ha: 80%
KCHSC Kochia scoparia [5]; 125 g/ha
  pest or weed control at 125 g/ha: 80%
CHEAL Chenopodium album; 125 g/ha
  pest or weed control at 125 g/ha: 90%
[6]; 125 g/ha
  pest or weed control at 125 g/ha: 80%
[7]
  pest or weed control at 1000 g/ha: 90%
KCHSC Kochia scoparia [8]; 30 g/ha
  Percentage damage KCHSC: 100%

## C/C=C\c1c(N)nc(-c2ccc(Cl)c(N(C)C)c2F)nc1C(=O)OC [Compound 5, (Z)-4-Amino-2-(4-chloro-3-dimethylamino-2-fluorophenyl)-6-methoxy-carbonyl-5-(prop-1-enyl)-pyrimidine]
[1]; 30 g/ha
  pest or weed control at 30 g/ha: 90%
IPOHE Ipomoea hederacea; 30 g/ha
  pest or weed control at 30 g/ha: 0%
[2]; 30 g/ha
  pest or weed control at 30 g/ha: 90%
[3]; 30 g/ha
  pest or weed control at 30 g/ha: 40%
GLXMA Soybean; 30 g/ha
  plant injury at 30 g/ha: 0%
SINAR Sinapis arvensis; 30 g/ha
  pest or weed control at 30 g/ha: 80%
[4]; 30 g/ha
  pest or weed control at 30 g/ha: 60%
SIDSP Sida spinosa; 30 g/ha
  pest or weed control at 30 g/ha: 0%
VERPE Veronica persica; 30 g/ha
  pest or weed control at 30 g/ha: 60%
KCHSC Kochia scoparia [5]; 30 g/ha
  pest or weed control at 30 g/ha: 70%
CHEAL Chenopodium album; 30 g/ha
  pest or weed control at 30 g/ha: 80%
[6]; 30 g/ha
  pest or weed control at 30 g/ha: 70%
[7]
  pest or weed control at 1000 g/ha: 30%
KCHSC Kochia scoparia [8]; 125 g/ha
  Percentage damage KCHSC: 30%

## C/C=C\c1c(N)nc(-c2ccc(Cl)c(OC)c2F)nc1C(=O)OC [Compound 4, (Z)-4-Amino-2-(4-chloro-2-fluoro-3-methoxy-phenyl)-6-methoxy-carbonyl-5-(prop-1-enyl)-pyrimidine]
[1]; 8 g/ha
  pest or weed control at 8 g/ha: 80%
GALAP Galium aparine; 8 g/ha
  pest or weed control at 8 g/ha: 30%
IPOHE Ipomoea hederacea; 8 g/ha
  pest or weed control at 8 g/ha: 70%
[2]; 8 g/ha
  pest or weed control at 8 g/ha: 70%
[3]; 8 g/ha
  pest or weed control at 8 g/ha: 60%
GLXMA Soybean; 8 g/ha
  plant injury at 8 g/ha: 20%
SINAR Sinapis arvensis; 8 g/ha
  pest or weed control at 8 g/ha: 60%
[4]; 8 g/ha
  pest or weed control at 8 g/ha: 90%
SIDSP Sida spinosa; 8 g/ha
  pest or weed control at 8 g/ha: 50%
VERPE Veronica persica; 8 g/ha
  pest or weed control at 8 g/ha: 80%
KCHSC Kochia scoparia [5]; 8 g/ha
  pest or weed control at 8 g/ha: 30%
[6]; 8 g/ha
  pest or weed control at 8 g/ha: 90%
[7]
  pest or weed control at 1000 g/ha: 100%
